# In PubChem BioAssay (NCI):
#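 In this assay, cells in 96-well plates receive the compound at five concentrations for 48 hours. Endpoints are linearly interpolated between the surrounding concentrations. GI50 is the concentration that inhibits growth by half. TGI: concentration producing complete growth inhibition.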
# Key:
# Assay in all cases: DTP human tumour cell line panel, 48 h
# [1] = tested on: CAKI-1 renal
# [2] = tested on: COLO 205 colon
# [3] = tested on: HOP-62 NSCLC
# [4] = tested on: IGROV1 ovarian
# [5] = tested on: SN12C renal
# [6] = tested on: TK-10 renal
# [7] = tested on: HOP-92 NSCLC
# [8] = tested on: MALME-3M melanoma
# [9] = tested on: OVCAR-5 ovarian
# [10] = tested on: UACC-257 melanoma
compound,measurement,setting,value
CCN(CC)CCCNc1nccc2c(C)c3c(cc12)c1cnccc1n3C,TGI,[1],1.03 µM
same,TGI,[2],1.4 µM
same,TGI,[3],0.571 µM
same,TGI,[4],2.75 µM
same,TGI,[5],1.75 µM
same,TGI,[6],3.26 µM
COC1CCC(OS(C)(=O)=O)C(CO)O1 (configuration not stated),TGI,[3],> 100 µM
same,TGI,[7],> 100 µM
same,TGI,[4],> 100 µM
same,TGI,[8],> 100 µM
same,TGI,[9],> 100 µM
same,TGI,[5],> 100 µM
same,TGI,[6],> 100 µM
same,TGI,[10],> 100 µM
Cc1ccc(O)c(NC(=O)c2cccc(Nc3ccnc(C(F)(F)F)c3)c2)c1,GI50,[1],11 µM
same,TGI,[1],31.8 µM
same,GI50,[2],14.6 µM
same,TGI,[2],33.7 µM
same,GI50,[3],11.6 µM
same,TGI,[3],28.9 µM
same,GI50,[7],2.24 µM
same,TGI,[7],21.1 µM
same,GI50,[4],12.6 µM
same,TGI,[4],28.1 µM
same,GI50,[8],19.2 µM
same,TGI,[8],78.5 µM
same,GI50,[9],13 µM
same,TGI,[9],36 µM
same,GI50,[5],5.81 µM
same,TGI,[5],37.3 µM
same,GI50,[6],19.1 µM
same,TGI,[6],73.5 µM
COc1ccc(C(=O)C(CN(C)C)CN(C)C)cc1,GI50,[1],1.89 µM
same,TGI,[1],3.56 µM
same,GI50,[2],1.11 µM
same,TGI,[2],2.32 µM
same,GI50,[3],17.8 µM
same,TGI,[3],32.9 µM
same,GI50,[7],2.4 µM
same,TGI,[7],9.84 µM
same,GI50,[4],15.4 µM
same,TGI,[4],39.2 µM
same,GI50,[9],12.6 µM
same,TGI,[9],30.8 µM
same,GI50,[5],12.6 µM
same,TGI,[5],56.4 µM
same,GI50,[6],2.32 µM
same,TGI,[6],6.98 µM
same,GI50,[10],2.14 µM
same,TGI,[10],8.48 µM
Cc1onc(-c2ccccc2)c1C(=O)N/N=C/c1cc(Cl)cc(Cl)c1O,GI50,[1],1.84 µM
same,TGI,[1],10.5 µM
same,GI50,[2],3.84 µM
same,TGI,[2],24.2 µM
same,GI50,[3],6.04 µM
same,TGI,[3],55.7 µM
same,GI50,[4],2.92 µM
same,TGI,[4],21.7 µM
same,GI50,[8],4.03 µM
same,TGI,[8],27.4 µM
same,GI50,[9],8.65 µM
same,TGI,[9],> 100 µM
same,GI50,[5],4.58 µM
same,TGI,[5],60.5 µM
same,GI50,[6],5.01 µM
same,TGI,[6],> 100 µM
same,GI50,[10],3.47 µM
same,TGI,[10],27.3 µM
CCOC(=O)c1cc(C(=O)c2ccc(OC)cc2)n2ccc(/C=C/c3cc[n+](CC(=O)c4ccc(OC)cc4)cc3)cc12,GI50,[3],3.4 µM
same,TGI,[3],36.8 µM
same,GI50,[7],1.23 µM
same,TGI,[7],3.15 µM
same,GI50,[4],1.74 µM
same,TGI,[4],4.46 µM
same,GI50,[8],1.67 µM
same,TGI,[8],3.66 µM
same,GI50,[6],2.01 µM
same,TGI,[6],5.76 µM
COc1cc2cc(OC(C)=O)c3cc4c(cc3c2c(OC)c1OC)OCO4,TGI,[2],> 100 µM
same,TGI,[3],> 100 µM
same,TGI,[4],> 100 µM
same,TGI,[8],> 100 µM
same,TGI,[9],> 100 µM
same,TGI,[5],> 100 µM
same,TGI,[6],> 100 µM
same,TGI,[10],> 100 µM
OC(CNc1ccnc2cc(Cl)ccc12)CNc1ccnc2cc(Cl)ccc12,GI50,[1],31.1 µM
same,TGI,[1],> 100 µM
same,GI50,[3],3.17 µM
same,TGI,[3],14.7 µM
same,GI50,[7],4.22 µM
same,TGI,[7],19.1 µM
same,GI50,[4],10.9 µM
same,TGI,[4],36.8 µM
same,GI50,[9],1.73 µM
same,TGI,[9],3.42 µM
same,GI50,[5],1.89 µM
same,TGI,[5],3.7 µM
same,GI50,[6],2.13 µM
same,TGI,[6],4.86 µM
same,GI50,[10],1.87 µM
same,TGI,[10],3.49 µM
